Earlier results in article PMC6819114, “Peptide-conjugated oligonucleotides evoke long-lasting myotonic dystrophy correction in patient-derived cells and mice” (The Journal of Clinical Investigation, 2019).

Source text: Among strategies to improve delivery of ASOs in DM1 skeletal muscles, cell-penetrating peptide conjugates offer an attractive avenue ([22]–[24]). Indeed, systemic administration of advanced Pip6a peptides conjugated with splice-switch oligonucleotides has shown promising results in DMD mice by restoring a truncated but functional dystrophin ([25]). Pip6a is a cell-penetrating peptide composed of a hydrophobic core region flanked on each side by arginine-rich domains containing β-alanine and aminohexanoyl spacers. This peptide sequence has the ability to deliver associated cargoes across the pl ...

Ac-(RXRRBRRXRYQF LIRXRBRXRB)-CO OH [Pip6a, arginine-rich cell-penetrating peptide: hydrophobic core flanked by arginine-rich domains containing β-alanine and aminohexanoyl spacers]
stability to serum proteolysis: stable
